Measured values published in patent US9745334B2, “Cytotoxic-drug delivering molecules targeting HIV (CDM-Hs), cytotoxic activity against the human immunodeficiency virus and methods of use” (YALE UNIVERSITY, priority 2012, dated 2017).

What was measured:
CHO-pSV (gp120−) cells = assay: Cell cytotoxicity assay (CellTiter Glo), CHO-pSV; type: cell-based; conditions: 14 h incubation; concentrations as high as 67 μM
Description: (§1) Wild-type HIV-1 env expressing CHO-env cells and CHO-pSv (env negative isogenic control) were a gift from Dr. Edward Berger (NIH), however, they were developed by Nicholas and coworkers.^55 CHO-pSv cells were grown in DMEM base media described below while CHO-env cells were grown in selection medium, which consists of base medium containing 0.25 μM methotrexate (MTX, Aldrich). *Note: Decrease in envelope expression in CHO-env cells was observed upon several passages and it is recommended to maintain low passage stocks of cells in liquid nitrogen.
(§2) Cell Cytotoxicity Assay (CellTiter Glo)
(§3) ***Note: all incubations and dilutions in CHO-culture media (+MTX for CHO-env)
(§4) ***All incubations performed in 96-well plates (clear bottom, black sides; Costar#3603) in triplicate at 37° C., 5% CO2 in moist environment.
(§5) Confluent (˜80%) T-75 flasks of CHO-env and/or CHO-pSv were washed once with DPBS (3 mL), detached, counted and then centrifuged. […]
(§6) Serial dilutions (1/6) of molecules made in empty 96-well plates using multichannel pipette, and then transferred to plates containing seeded cells (50 μL). […] Luminescence monitored on Biotek Synergy 2 microplate reader.
(§7) % cytotoxicity above background calculated by the following formulas: % CDC=[100−((sample−max kill)/(no molecule−max kill))*100] […]

CHO-env (gp120+) cells = assay: Cell cytotoxicity assay (CellTiter Glo), CHO-env; type: cell-based; conditions: 14 h; at 310 nM and 1.85 μM
Description: as §1, §2, §3, §4, §5, §6, §7

COc1cccc2c1C(=O)c1c(O)c3c(c(O)c1C2=O)C[C@@](O)(C(=O)CO)C[C@@H]3O[C@H]1C[C@H](N)[C@H](O)[C@H](C)O1 [doxorubicin]
non-specific cytotoxicity (CHO-pSV (gp120−) cells): non-specifically toxic | toxicity at low concentrations (CHO-env (gp120+) cells): no toxicity was observed
